# Assay results as given in PubChem BioAssay (NCI).
#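 Exposure lasted 48 hours, with cells grown in 96-well plates and compounds tested at five concentrations. TGI denotes the concentration required for complete inhibition of growth.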
# Columns and labels:
# Assay in all cases: DTP human tumour cell line panel, 48 h
# BT-549 breast = tested on: BT-549 breast
# SK-MEL-5 melanoma = tested on: SK-MEL-5 melanoma
# IGROV1 ovarian = tested on: IGROV1 ovarian
# M14 melanoma = tested on: M14 melanoma
# UACC-62 melanoma = tested on: UACC-62 melanoma
# MALME-3M melanoma = tested on: MALME-3M melanoma
# HT29 colon = tested on: HT29 colon
# UO-31 renal = tested on: UO-31 renal
# COLO 205 colon = tested on: COLO 205 colon
# HL-60(TB) leukemia = tested on: HL-60(TB) leukemia
# KM12 colon = tested on: KM12 colon
# HOP-92 NSCLC = tested on: HOP-92 NSCLC
# DU-145 prostate = tested on: DU-145 prostate
# CAKI-1 renal = tested on: CAKI-1 renal
# SK-OV-3 ovarian = tested on: SK-OV-3 ovarian
# MDA-MB-435 = tested on: MDA-MB-435
# CCRF-CEM leukemia = tested on: CCRF-CEM leukemia
# SW-620 colon = tested on: SW-620 colon
# ACHN renal = tested on: ACHN renal
# HCT-116 colon = tested on: HCT-116 colon
# NCI-H226 lung = tested on: NCI-H226 lung
# PC-3 prostate = tested on: PC-3 prostate
# SF-295 CNS = tested on: SF-295 CNS
# TK-10 renal = tested on: TK-10 renal
# SF-268 CNS = tested on: SF-268 CNS
# SNB-19 CNS = tested on: SNB-19 CNS
# NCI-H460 lung = tested on: NCI-H460 lung
# RXF 393 renal = tested on: RXF 393 renal
# OVCAR-8 ovarian = tested on: OVCAR-8 ovarian
# K-562 leukemia = tested on: K-562 leukemia
# MCF7 breast = tested on: MCF7 breast
# SF-539 CNS = tested on: SF-539 CNS
# SN12C renal = tested on: SN12C renal
# MDA-N = tested on: MDA-N
# HOP-62 NSCLC = tested on: HOP-62 NSCLC
# SR leukemia = tested on: SR leukemia
# NCI/ADR-RES ovarian = tested on: NCI/ADR-RES ovarian
# LOX IMVI melanoma = tested on: LOX IMVI melanoma
# HCC-2998 colon = tested on: HCC-2998 colon
# NCI-H522 lung = tested on: NCI-H522 lung
# SK-MEL-2 melanoma = tested on: SK-MEL-2 melanoma
# EKVX NSCLC = tested on: EKVX NSCLC
# SK-MEL-28 melanoma = tested on: SK-MEL-28 melanoma
# A549 NSCLC = tested on: A549 NSCLC
# HCT-15 colon = tested on: HCT-15 colon
# MDA-MB-231 breast = tested on: MDA-MB-231 breast
# 786-0 renal = tested on: 786-0 renal
# UACC-257 melanoma = tested on: UACC-257 melanoma
# HS 578T breast = tested on: HS 578T breast
# SNB-75 CNS = tested on: SNB-75 CNS
# MOLT-4 leukemia = tested on: MOLT-4 leukemia
# OVCAR-5 ovarian = tested on: OVCAR-5 ovarian
# RPMI-8226 leukemia = tested on: RPMI-8226 leukemia
# NCI-H23 lung = tested on: NCI-H23 lung
# A498 renal = tested on: A498 renal
# U251 CNS = tested on: U251 CNS
# T-47D breast = tested on: T-47D breast
# OVCAR-4 ovarian = tested on: OVCAR-4 ovarian
# OVCAR-3 ovarian = tested on: OVCAR-3 ovarian
smiles,measurement,setting,value
COc1cc(O)c2c(=O)c(OC)c(-c3ccc4c(c3)OCO4)oc2c1,TGI,BT-549 breast,> 30 µM
same,TGI,SK-MEL-5 melanoma,98.1 µM
same,TGI,IGROV1 ovarian,> 100 µM
same,TGI,M14 melanoma,> 100 µM
same,TGI,UACC-62 melanoma,> 100 µM
same,TGI,MALME-3M melanoma,> 100 µM
same,TGI,HT29 colon,> 100 µM
same,TGI,UO-31 renal,> 100 µM
same,TGI,COLO 205 colon,> 100 µM
same,TGI,HL-60(TB) leukemia,> 100 µM
same,TGI,KM12 colon,> 100 µM
same,TGI,HOP-92 NSCLC,> 57.7 µM
same,TGI,DU-145 prostate,> 100 µM
same,TGI,CAKI-1 renal,> 100 µM
same,TGI,SK-OV-3 ovarian,81 µM
same,TGI,MDA-MB-435,> 100 µM
same,TGI,CCRF-CEM leukemia,> 100 µM
same,TGI,SW-620 colon,> 100 µM
same,TGI,ACHN renal,> 100 µM
same,TGI,HCT-116 colon,> 100 µM
same,TGI,NCI-H226 lung,> 100 µM
same,TGI,PC-3 prostate,> 100 µM
same,TGI,SF-295 CNS,> 92.2 µM
same,TGI,TK-10 renal,> 100 µM
same,TGI,SF-268 CNS,40 µM
same,TGI,SNB-19 CNS,> 84.1 µM
same,TGI,NCI-H460 lung,> 100 µM
same,TGI,RXF 393 renal,> 100 µM
same,TGI,OVCAR-8 ovarian,> 100 µM
same,TGI,K-562 leukemia,> 100 µM
same,TGI,MCF7 breast,> 100 µM
same,TGI,SF-539 CNS,> 74.9 µM
same,TGI,SN12C renal,> 100 µM
same,TGI,MDA-N,> 100 µM
same,TGI,HOP-62 NSCLC,> 63.1 µM
same,TGI,SR leukemia,> 100 µM
same,TGI,NCI/ADR-RES ovarian,> 100 µM
same,TGI,LOX IMVI melanoma,> 100 µM
same,TGI,HCC-2998 colon,> 100 µM
same,TGI,NCI-H522 lung,> 100 µM
same,TGI,SK-MEL-2 melanoma,> 100 µM
same,TGI,EKVX NSCLC,> 100 µM
same,TGI,SK-MEL-28 melanoma,> 100 µM
same,TGI,A549 NSCLC,> 100 µM
same,TGI,HCT-15 colon,> 100 µM
same,TGI,MDA-MB-231 breast,> 77.4 µM
same,TGI,786-0 renal,> 100 µM
same,TGI,UACC-257 melanoma,> 100 µM
same,TGI,HS 578T breast,> 100 µM
same,TGI,SNB-75 CNS,14.9 µM
same,TGI,MOLT-4 leukemia,> 100 µM
same,TGI,OVCAR-5 ovarian,> 100 µM
same,TGI,RPMI-8226 leukemia,> 100 µM
same,TGI,NCI-H23 lung,> 100 µM
same,TGI,A498 renal,> 89.3 µM
same,TGI,U251 CNS,30.2 µM
same,TGI,T-47D breast,> 100 µM
CC(C)(C)OC(=O)NC1CC=CCC1NC(=O)OC(C)(C)C (stereo not given),TGI,BT-549 breast,> 100 µM
same,TGI,SK-MEL-5 melanoma,> 100 µM
same,TGI,IGROV1 ovarian,> 100 µM
same,TGI,M14 melanoma,> 100 µM
same,TGI,UACC-62 melanoma,> 100 µM
same,TGI,MALME-3M melanoma,> 100 µM
same,TGI,HT29 colon,> 100 µM
same,TGI,UO-31 renal,> 100 µM
same,TGI,COLO 205 colon,> 100 µM
same,TGI,HL-60(TB) leukemia,> 100 µM
same,TGI,KM12 colon,> 100 µM
same,TGI,HOP-92 NSCLC,> 100 µM
same,TGI,DU-145 prostate,> 100 µM
same,TGI,CAKI-1 renal,> 100 µM
same,TGI,SK-OV-3 ovarian,> 100 µM
same,TGI,MDA-MB-435,> 100 µM
same,TGI,CCRF-CEM leukemia,> 100 µM
same,TGI,SW-620 colon,> 100 µM
same,TGI,ACHN renal,> 100 µM
same,TGI,HCT-116 colon,> 100 µM
same,TGI,NCI-H226 lung,> 100 µM
same,TGI,PC-3 prostate,> 100 µM
same,TGI,SF-295 CNS,> 100 µM
same,TGI,TK-10 renal,> 100 µM
same,TGI,SF-268 CNS,> 100 µM
same,TGI,SNB-19 CNS,> 100 µM
same,TGI,NCI-H460 lung,> 100 µM
same,TGI,RXF 393 renal,> 100 µM
same,TGI,OVCAR-8 ovarian,> 100 µM
same,TGI,K-562 leukemia,> 100 µM
same,TGI,MCF7 breast,> 100 µM
same,TGI,SF-539 CNS,> 100 µM
same,TGI,OVCAR-4 ovarian,> 100 µM
same,TGI,SN12C renal,> 100 µM
same,TGI,MDA-N,> 100 µM
same,TGI,OVCAR-3 ovarian,> 100 µM
same,TGI,HOP-62 NSCLC,> 100 µM
same,TGI,SR leukemia,> 100 µM
same,TGI,NCI/ADR-RES ovarian,> 100 µM
same,TGI,LOX IMVI melanoma,> 100 µM
same,TGI,HCC-2998 colon,> 100 µM
same,TGI,NCI-H522 lung,> 100 µM
same,TGI,SK-MEL-2 melanoma,> 100 µM
same,TGI,SK-MEL-28 melanoma,> 100 µM
same,TGI,A549 NSCLC,> 100 µM
same,TGI,HCT-15 colon,> 100 µM
same,TGI,MDA-MB-231 breast,> 100 µM
same,TGI,786-0 renal,> 100 µM
same,TGI,UACC-257 melanoma,> 100 µM
same,TGI,HS 578T breast,> 100 µM
same,TGI,SNB-75 CNS,> 100 µM
same,TGI,MOLT-4 leukemia,> 100 µM
same,TGI,OVCAR-5 ovarian,> 100 µM
same,TGI,RPMI-8226 leukemia,> 100 µM
same,TGI,NCI-H23 lung,> 100 µM
same,TGI,A498 renal,> 100 µM
same,TGI,U251 CNS,> 100 µM
same,TGI,T-47D breast,> 100 µM
